Experimental data reported in patent US20050070510A1, “Substituted tetracycline compounds as synergistic antifungal agents” (Paratek Pharmaceuticals, Inc., priority 2001, published 2005).

system: COS-1 cells; test: In vitro mammalian cytotoxicity assay (Resazurin)

Row | Compound | In Vitro Cytotoxicity
1 | CN(C)c1cc(-c2ccc(Cl)cc2)c(O)c2c1C[C@@]1(N)C[C@@]3(N)[C@H](N(C)C)C(O)=C(C(N)=O)C(=O)[C@@]3(C#N)C(O)=C1C2=O [EQ] | ** (toxicities less than 25 μg/mL are represented by **)
2 | CCOc1ccccc1-c1ccc(O)c2c1C[C@@]1(N)C[C@@]3(N)[C@H](N(C)C)C(O)=C(C(N)=O)C(=O)[C@@]3(C#N)C(O)=C1C2=O [ER] | ** (toxicities less than 25 μg/mL are represented by **)
3 | CN(C)c1cc(-c2cccc(O)c2)c(O)c2c1C[C@@]1(N)C[C@@]3(N)[C@H](N(C)C)C(O)=C(C(N)=O)C(=O)[C@@]3(C#N)C(O)=C1C2=O [ES] | ** (toxicities less than 25 μg/mL are represented by **)
4 | CN(C)c1cc(-c2ccc(C(N)=O)cc2)c(O)c2c1C[C@@]1(N)C[C@@]3(N)[C@H](N(C)C)C(O)=C(C(N)=O)C(=O)[C@@]3(C#N)C(O)=C1C2=O [ET] | ** (toxicities less than 25 μg/mL are represented by **)
5 | CN(C)c1cc(-c2cccc(C(N)=O)c2)c(O)c2c1C[C@@]1(N)C[C@@]3(N)[C@H](N(C)C)C(O)=C(C(N)=O)C(=O)[C@@]3(C#N)C(O)=C1C2=O [EU] | ** (toxicities less than 25 μg/mL are represented by **)
6 | CN(C)c1cc(-c2ccc(Cl)c(Cl)c2)c(O)c2c1C[C@@]1(N)C[C@@]3(N)[C@H](N(C)C)C(O)=C(C(N)=O)C(=O)[C@@]3(C#N)C(O)=C1C2=O [EV] | ** (toxicities less than 25 μg/mL are represented by **)
7 | CN(C)c1cc(-c2ccc(F)cc2F)c(O)c2c1C[C@@]1(N)C[C@@]3(N)[C@H](N(C)C)C(O)=C(C(N)=O)C(=O)[C@@]3(C#N)C(O)=C1C2=O [EX] | ** (toxicities less than 25 μg/mL are represented by **)
8 | CN(C)c1cc(-c2ccc(F)c(F)c2)c(O)c2c1C[C@@]1(N)C[C@@]3(N)[C@H](N(C)C)C(O)=C(C(N)=O)C(=O)[C@@]3(C#N)C(O)=C1C2=O [EY] | ** (toxicities less than 25 μg/mL are represented by **)
9 | CN(C)[C@@H]1C(O)=C(C(N)=O)C(=O)[C@@]2(C#N)C(O)=C3C(=O)c4c(O)cccc4C[C@@]3(N)[C@H](NC(=O)CCN3CCOCC3)[C@@]12N [EZ] | ** (toxicities less than 25 μg/mL are represented by **)
10 | CN(C)[C@@H]1C(O)=C(C(N)=O)C(=O)[C@@]2(C#N)C(O)=C3C(=O)c4c(O)ccc(/C=C/c5ccccn5)c4C[C@@]3(N)C[C@@]12N [FA] | ** (toxicities less than 25 μg/mL are represented by **)
11 | CN(C)[C@@H]1C(O)=C(C(N)=O)C(=O)[C@@]2(C#N)C(O)=C3C(=O)c4c(O)ccc(C#Cc5ccccc5)c4C[C@@]3(N)C[C@@]12N [FB] | ** (toxicities less than 25 μg/mL are represented by **)
12 | CN(C)[C@@H]1C(O)=C(C(N)=O)C(=O)[C@@]2(C#N)C(O)=C3C(=O)c4c(O)ccc(-c5cccc(N)c5)c4C[C@@]3(N)C[C@@]12N [FC] | ** (toxicities less than 25 μg/mL are represented by **)
13 | CN(C)[C@@H]1C(O)=C(C(N)=O)C(=O)[C@@]2(C#N)C(O)=C3C(=O)c4c(O)ccc(C5C=CCC5)c4C[C@@]3(N)C[C@@]12N (stereo partly shown) [FD] | ** (toxicities less than 25 μg/mL are represented by **)
14 | COc1ccc(C#Cc2cc(N(C)C)c3c(c2O)C(=O)C2=C(O)[C@]4(C#N)C(=O)C(C(N)=O)=C(O)[C@@H](N(C)C)[C@]4(N)C[C@]2(N)C3)cc1 [FE] | ** (toxicities less than 25 μg/mL are represented by **)
15 | CN(C)c1cc(C#Cc2ccc(F)cc2)c(O)c2c1C[C@@]1(N)C[C@@]3(N)[C@H](N(C)C)C(O)=C(C(N)=O)C(=O)[C@@]3(C#N)C(O)=C1C2=O [FF] | ** (toxicities less than 25 μg/mL are represented by **)
16 | CN(C)c1cc(C#Cc2cccc(O)c2)c(O)c2c1C[C@@]1(N)C[C@@]3(N)[C@H](N(C)C)C(O)=C(C(N)=O)C(=O)[C@@]3(C#N)C(O)=C1C2=O [FG] | ** (toxicities less than 25 μg/mL are represented by **)
17 | CC#Cc1cc(N(C)C)c2c(c1O)C(=O)C1=C(O)[C@]3(C#N)C(=O)C(C(N)=O)=C(O)[C@@H](N(C)C)[C@]3(N)C[C@]1(N)C2 [FH] | * (toxicities greater than >25 μg/ml are represented by *)
18 | CN(C)[C@@H]1C(O)=C(C(N)=O)C(=O)[C@@]2(C#N)C(O)=C3C(=O)c4c(O)ccc(C#CC5CCCCC5)c4C[C@@]3(N)C[C@@]12N [FI] | ** (toxicities less than 25 μg/mL are represented by **)
19 | CN(C)CC#Cc1ccc(O)c2c1C[C@@]1(N)C[C@@]3(N)[C@H](N(C)C)C(O)=C(C(N)=O)C(=O)[C@@]3(C#N)C(O)=C1C2=O [FJ] | ** (toxicities less than 25 μg/mL are represented by **)
20 | CN(C)[C@@H]1C(O)=C(C(N)=O)C(=O)[C@@]2(C#N)C(O)=C3C(=O)c4c(O)ccc(C#Cc5c(F)c(F)c(F)c(F)c5F)c4C[C@@]3(N)C[C@@]12N [FK] | ** (toxicities less than 25 μg/mL are represented by **)
21 | Cc1ccc(C#Cc2cc(N(C)C)c3c(c2O)C(=O)C2=C(O)[C@]4(C#N)C(=O)C(C(N)=O)=C(O)[C@@H](N(C)C)[C@]4(N)C[C@]2(N)C3)cc1 [FL] | ** (toxicities less than 25 μg/mL are represented by **)
22 | CN(C)[C@@H]1C(O)=C(C(N)=O)C(=O)[C@@]2(C#N)C(O)=C3C(=O)c4c(O)ccc(-c5cc6ccccc6o5)c4C[C@@]3(N)C[C@@]12N [FM] | * (toxicities greater than >25 μg/ml are represented by *)

Row | Compound | In Vitro Cytotoxicity
23 | CN(C)c1cc(C#CC2(O)CCCCC2)c(O)c2c1C[C@@]1(N)C[C@@]3(N)[C@H](N(C)C)C(O)=C(C(N)=O)C(=O)[C@@]3(C#N)C(O)=C1C2=O [FP] | * (toxicities greater than >25 μg/ml are represented by *)
24 | CN(C)[C@@H]1C(O)=C(C(N)=O)C(=O)[C@@]2(C#N)C(O)=C3C(=O)c4c(O)ccc(-c5ccc(C(F)(F)F)cc5)c4C[C@@]3(N)C[C@@]12N [FQ] | ** (toxicities less than 25 μg/mL are represented by **)
25 | Cc1ccc(-c2ccc(O)c3c2C[C@@]2(N)C[C@@]4(N)[C@H](N(C)C)C(O)=C(C(N)=O)C(=O)[C@@]4(C#N)C(O)=C2C3=O)cc1 [FR] | ** (toxicities less than 25 μg/mL are represented by **)
26 | CN(C)[C@@H]1C(O)=C(C(N)=O)C(=O)[C@@]2(C#N)C(O)=C3C(=O)c4c(O)ccc(C=C5CCC5)c4C[C@@]3(N)C[C@@]12N [FS] | ** (toxicities less than 25 μg/mL are represented by **)
27 | CCOc1ccc(-c2ccc(O)c3c2C[C@@]2(N)C[C@@]4(N)[C@H](N(C)C)C(O)=C(C(N)=O)C(=O)[C@@]4(C#N)C(O)=C2C3=O)cc1 [FT] | ** (toxicities less than 25 μg/mL are represented by **)
28 | CN(C)[C@@H]1C(O)=C(C(N)=O)C(=O)[C@@]2(C#N)C(O)=C3C(=O)c4c(O)ccc(C#Cc5ccc([N+](=O)O)cc5)c4C[C@@]3(N)C[C@@]12N [FU] | ** (toxicities less than 25 μg/mL are represented by **)
29 | CN(C)[C@@H]1C(O)=C(C(N)=O)C(=O)[C@@]2(C#N)C(O)=C3C(=O)c4c(O)ccc(-c5ccc(Cl)o5)c4C[C@@]3(N)C[C@@]12N [FV] | ** (toxicities less than 25 μg/mL are represented by **)
30 | CN(C)[C@@H]1C(O)=C(C(N)=O)C(=O)[C@@]2(C#N)C(O)=C3C(=O)c4c(O)ccc(-c5cc6ccccc6o5)c4C[C@@]3(N)C[C@@]12N [FW] | ** (toxicities less than 25 μg/mL are represented by **)
31 | CN(C)[C@@H]1C(O)=C(C(N)=O)C(=O)[C@@]2(C#N)C(O)=C3C(=O)c4c(O)ccc(C#Cc5ccccc5)c4C[C@@]3(N)C[C@@]12N [FX] | ** (toxicities less than 25 μg/mL are represented by **)
32 | CCCc1cccc(-c2ccc(O)c3c2C[C@@]2(N)C[C@@]4(N)[C@H](N(C)C)C(O)=C(C(N)=O)C(=O)[C@@]4(C#N)C(O)=C2C3=O)c1 [FY] | ** (toxicities less than 25 μg/mL are represented by **)
33 | COc1ccc(C#Cc2ccc(O)c3c2C[C@@]2(N)C[C@@]4(N)[C@H](N(C)C)C(O)=C(C(N)=O)C(=O)[C@@]4(C#N)C(O)=C2C3=O)cc1 [FZ] | ** (toxicities less than 25 μg/mL are represented by **)
34 | CN(C)[C@@H]1C(O)=C(C(N)=O)C(=O)[C@@]2(C#N)C(O)=C3C(=O)c4c(O)ccc(C#CC5(C#N)CCCCC5)c4C[C@@]3(N)C[C@@]12N [GA] | ** (toxicities less than 25 μg/mL are represented by **)
35 | Cc1cc(C)cc(-c2ccc(O)c3c2C[C@@]2(N)C[C@@]4(N)[C@H](N(C)C)C(O)=C(C(N)=O)C(=O)[C@@]4(C#N)C(O)=C2C3=O)c1 [GD] | ** (toxicities less than 25 μg/mL are represented by **)
36 | CCc1ccc(O)c2c1C[C@@]1(N)C[C@@]3(N)[C@H](N(C)C)C(O)=C(C(N)=O)C(=O)[C@@]3(C#N)C(O)=C1C2=O [GE] | ** (toxicities less than 25 μg/mL are represented by **)
37 | CN(C)[C@@H]1C(O)=C(C(N)=O)C(=O)[C@@]2(C#N)C(O)=C3C(=O)c4c(O)ccc(C#CC5=CCCCC5)c4C[C@@]3(N)C[C@@]12N [GF] | ** (toxicities less than 25 μg/mL are represented by **)
38 | CN(C)[C@@H]1C(O)=C(C(N)=O)C(=O)[C@@]2(C#N)C(O)=C3C(=O)c4c(O)ccc(/C=C(\Cl)C5=CCCCC5)c4C[C@@]3(N)C[C@@]12N [GG] | ** (toxicities less than 25 μg/mL are represented by **)
39 | CN(C)[C@@H]1C(O)=C(C(N)=O)C(=O)[C@@]2(C#N)C(O)=C3C(=O)c4c(O)ccc(C#Cc5ccccc5F)c4C[C@@]3(N)C[C@@]12N [GH] | ** (toxicities less than 25 μg/mL are represented by **)
40 | Cc1ccc(C#Cc2ccc(O)c3c2C[C@@]2(N)C[C@@]4(N)[C@H](N(C)C)C(O)=C(C(N)=O)C(=O)[C@@]4(C#N)C(O)=C2C3=O)cc1 [GI] | ** (toxicities less than 25 μg/mL are represented by **)
41 | Cc1ccc(-c2ccc(O)c3c2C[C@@]2(N)C[C@@]4(N)[C@H](N(C)C)C(O)=C(C(N)=O)C(=O)[C@@]4(C#N)C(O)=C2C3=O)s1 [GJ] | ** (toxicities less than 25 μg/mL are represented by **)
42 | CN(C)[C@@H]1C(O)=C(C(N)=O)C(=O)[C@@]2(C#N)C(O)=C3C(=O)c4c(O)ccc(-c5ccc(C(C)(C)C)cc5)c4C[C@@]3(N)C[C@@]12N [GK] | ** (toxicities less than 25 μg/mL are represented by **)
43 | COc1ccc(Cl)cc1-c1ccc(O)c2c1C[C@@]1(N)C[C@@]3(N)[C@H](N(C)C)C(O)=C(C(N)=O)C(=O)[C@@]3(C#N)C(O)=C1C2=O [GL] | ** (toxicities less than 25 μg/mL are represented by **)
